Data taken from the supplement of paper PMC13380429.

Assays:
[1] = system: HepG2; assay: relative viability EC50 (midpoint between 100% and the lowest measured viability); higher = less toxic; settings: 72 h
[2] = system: Vero E6; assay: as above; settings: 72 h
[3] = system: Caco-2; assay: as above; settings: 72 h
[4] = system: Calu-3; assay: as above; settings: 72 h
[5] = system: A549-ACE2 infected with SARS-CoV-2; assay: morphology score (similarity to uninfected cells); higher = more like uninfected cells; settings: 24 h
[6] = system: A549-ACE2; assay: phospholipidosis EC50; higher = less potent phospholipidosis inducer
[7] = system: A549-ACE2 infected with SARS-CoV-2; assay: cell count relative to DMSO; higher = less toxic; settings: 24 h
[8] = system: A549-ACE2 infected with SARS-CoV-2; assay: SARS-CoV-2 infection rate relative to DMSO; higher = more infection; settings: 24 h
[9] = system: HepG2; assay: drug sensitivity score (DSS) for viability; higher = more toxic; extreme values may be limits of the assay; settings: 72 h
[10] = system: U2OS; assay: as above; settings: 72 h
[11] = system: Vero E6; assay: as above; settings: 72 h
[12] = system: Caco-2; assay: as above; settings: 72 h
[13] = system: Calu-3; assay: as above; settings: 72 h
[14] = system: A549-ACE2; assay: drug-induced phospholipidosis relative to tamoxifen; higher = more phospholipidosis
[15] = system: HepG2; assay: cell viability relative to DMSO; higher = less toxic; settings: 72 h
[16] = system: U2OS; assay: as above; settings: 72 h
[17] = system: Vero E6; assay: as above; settings: 72 h
[18] = system: Caco-2; assay: as above; settings: 72 h
[19] = system: Calu-3; assay: as above; settings: 72 h

CNCc1ccc(-c2cc(-c3nc(-c4ccc(S(=O)(=O)C(C)C)cc4)cnc3N)on2)cc1 [VE-822]
Settings | drug sensitivity score | relative viability EC50 [nM]
[1] | – | 779
[2] | – | 1970
[3] | – | 2040
[4] | – | > 10000
[9] | 10.1 | –
[10] | 2.6 | –
[11] | 7.9 | –
[12] | 3.9 | –
[13] | 0 | –

Settings | SARS-CoV-2 infection rate [%] | cell count [%] | cell viability [%] | morphology score | phospholipidosis EC50 [nM]
[5], 0.1 µM | – | – | – | 0.32 | –
[5], 0.3 µM | – | – | – | 0.31 | –
[5], 1 µM | – | – | – | 0.57 | –
[5], 3 µM | – | – | – | 0.55 | –
[6], 24 h | – | – | – | – | 1160
[6], 48 h | – | – | – | – | 3020
[6], 72 h | – | – | – | – | 2970
[7], 0.1 µM | – | 107 | – | – | –
[7], 0.3 µM | – | 110 | – | – | –
[7], 1 µM | – | 128 | – | – | –
[7], 3 µM | – | 118 | – | – | –
[8], 0.1 µM | 89 | – | – | – | –
[8], 0.3 µM | 89 | – | – | – | –
[8], 1 µM | 51 | – | – | – | –
[8], 3 µM | 25 | – | – | – | –
[15], 1 nM | – | – | 111 | – | –
[15], 10 nM | – | – | 99 | – | –
[15], 100 nM | – | – | 94 | – | –
[15], 1000 nM | – | – | 53.3 | – | –
[15], 10000 nM | – | – | 19.1 | – | –
[16], 1 nM | – | – | 101 | – | –
[16], 10 nM | – | – | 104 | – | –
[16], 100 nM | – | – | 96 | – | –
[16], 1000 nM | – | – | 89.9 | – | –
[16], 10000 nM | – | – | 67.4 | – | –
[17], 1 nM | – | – | 94.8 | – | –
[17], 10 nM | – | – | 95.7 | – | –
[17], 100 nM | – | – | 97.2 | – | –
[17], 1000 nM | – | – | 85.1 | – | –
[17], 10000 nM | – | – | 2.1 | – | –
[18], 1 nM | – | – | 104 | – | –
[18], 10 nM | – | – | 103 | – | –
[18], 100 nM | – | – | 103 | – | –
[18], 1000 nM | – | – | 92.8 | – | –
[18], 10000 nM | – | – | 49.3 | – | –
[19], 1 nM | – | – | 96.5 | – | –
[19], 10 nM | – | – | 93.2 | – | –
[19], 100 nM | – | – | 93.4 | – | –
[19], 1000 nM | – | – | 106 | – | –
[19], 10000 nM | – | – | 90 | – | –

drug-induced phospholipidosis [%], [14]
Settings | 0.3 µM | 0.833333 µM | 3.33333 µM | 6.66667 µM | 10 µM | 30 µM
24 h | 13.9 | 27.3 | 86.2 | 113 | 119 | 42.3
48 h | 14.2 | 28 | 89.1 | 124 | 148 | 62.7
72 h | 16.7 | 20.1 | 102 | 143 | 163 | 63.3
